According to patent publication US9353075B2, “Disubstituted beta-lactones as inhibitors of N-acylethanolamine acid amidase (NAAA)” (The Regents of the University of California, priority 2011, dated 2016):

Key:
[1] = Chemical stability in PBS buffer pH 7.4; assay type: physicochemical; conditions: phosphate-buffered saline, 0.01M PBS pH 7.4, 37° C., read-out: Stability in PBS buffer, pH 7.4 t1/2
Protocol: Chemical stability of select compounds was evaluated under physiological pH conditions (0.01M Phosphate-Buffered Saline, pH 7.4) for up to 24 h. Stock solutions of each compound (10 mM) were prepared freshly in DMSO. Each compound was incubated at a final concentration of 10 μM (1% DMSO) in pre-heated buffer (0.01M Phosphate-Buffered Saline (PBS), pH 7.4 at 37° C.). The sample solutions were divided into aliquots in glass vials (pre-heated at 37° C.) for each time point. The samples were maintained at 37° C. in the UPLC/MS Autosampler during the study (no shaking). A reference solution of each compound (final concentration: 10 μM at 1% DMSO) in pre-heated CH3CN (37° C.) was prepared from the stock solutions (10 mM in DMSO). The reference solutions were maintained at 37° C. in the UPLC/MS Autosampler during the study (no shaking). An internal standard (100 nM) was added to the sample and reference solutions. For each time point, the samples were analyzed directly by LC/MS without any further sample preparation. The samples were analyzed (triplicate injection) by monitoring the MS trace by Multiple Reaction Monitoring (MRM). The compound concentration (expressed as %) was calculated by dividing the peak area at each time point by the peak area at t=0 min. The reference solution was analyzed at the beginning (t=0 min.), and at the end of the study (t=24 h). The apparent half-lives (t1/2) of the disappearance of compound were calculated by a one-phase decay equation using a non-linear regression of compound concentration versus time.
The analyses were performed on a Waters ACQUITY UPLC/MS TQD system consisting of a TQD (Triple Quadropole Detector) Mass Spectrometer equipped with an Electrospray Ionization interface and a Photodiode Array Detector. The analyses were run on an ACQUITY UPLC BEH C18 1.7 μm 2.1×50 mm column with a VanGuard BEH C18 1.7 μm pre-column at 40° C. The mobile phase was 0.1% HCOOH in H2O (A) and 0.1% HCOOH in CH3CN (B) using a linear gradient: 0-0.2 min.: 5% B, 0.2-2.2 min.: 5-95% B, 2.2-2.3 min.: 95-5% B, 2.3-3 min.: 5% B with flow rate at 0.5 mL/min. […]

r-NAAA = r-NAAA (Rattus norvegicus (Rat), UniProt Q5KTC7); experiment: r-NAAA inhibition, rat lung lysosomal NAAA preparation, UPLC/MS; assay type: biochemical; conditions: for inhibition at 3 µM: read-out: r-NAAA % inhib. @ 3 μM
Protocol: Lysosomal NAAA protein preparation were obtained by homogenizing male Sprague-Dawley rat lungs (Charles River) in 20 mM Tris-HCl buffer pH 7.4 containing 0.32M sucrose. Samples were centrifuged at 800×g for 15 minutes at 4° C. Supernatants were then centrifuged at 12,000 g for 30 minutes at 4° C. Pellets were then resuspended in PBS pH 7.4 and subjected to a freeze/thaw cycle at −80° C. The suspension was finally centrifuged at 105,000×g for 1 hour at 4° C. The supernatant was then used in the enzymatic assay.
NAAA protein preparation was pre-incubated with various concentrations of test compounds or vehicle control in 100 mM NaH2PO4/Citrate buffer, 1% Triton-X, 3 mM DTT (pH 4.5) for 30 minutes at 37° C. Samples were then incubated with heptadecenoylethanolamide (50 μM, Avanti Polar Lipids) at 37° C. for 30 min. The reaction was terminated by addition of cold methanol containing heptadecanoic acid (NuCheck Prep) as internal standard. Samples were then analyzed by UPLC/MS (Acquity, Waters). Heptadecenoic and heptadecanoic acids were eluted on an Acquity UPLC BEH C18 column (50 mm length, 2.1 mm i.d., 1.7 μm pore size, Waters) isocratically at 0.5 mL/min for 1.5 min with a solvent mixture of 95% methanol and 5% water, both containing 0.25% Acetic Acid and 5 mM Ammonium Acetate. The column temperature was 40° C. Electrospray ionization was in the negative mode, capillary voltage was 0.5 kV, cone voltage was […], desolvation temperature was 500° C. N2 was used as drying gas at a flow rate of 1000 L/hour and a temperature of 500° C. The [M−H]^− ion was monitored in the selected-ion monitoring mode (m/z values: heptadecenoic acid 267.37, heptadecanoic acid 269.37). Calibration curves were generated using commercial heptadecenoic acid (NuCheck Prep). Inhibition of NAAA activity was calculated as reduction of heptadecenoic acid in the samples compared to vehicle controls. IC50 values were calculated by non-linear regression analysis of log [concentration]/inhibition curves using GraphPad Prism 5 (GraphPad Software Inc., CA—USA) applying a standard slope curve fitting.

h-NAAA [2] = molecular target: T1, h-NAAA (Homo sapiens (Human), UniProt Q02083); experiment: Fluorogenic h-NAAA assay; assay type: biochemical
Protocol: (§1) The assay was run in Optiplate 96-wells black plates, in a total reaction volume of 200 mL. NAAA protein preparations (4 ng) were pre-incubated for 10 minutes with various concentrations of test compounds or vehicle control (5% DMSO) in 100 mM citrate/phosphate buffer (pH 4.5) containing 3.0 mM DTT, 0.1% Triton X-100, 0.05% BSA, 150 mM NaCl. N-(4-methyl-2-oxo-chromen-7-yl)-hexadecanamide was used as a substrate (5.0 μM) and the reaction carried over for 30 minutes at 37° C. Fluorescence in the samples was quantified in a Perkin Elmer Envision plate reader using an excitation wavelength of 360 nm and emission 460 nm. IC50 values were calculated by non-linear regression analysis of log [concentration]/inhibition curves using GraphPad Prism 5 (GraphPad Software Inc., CA—USA) applying a standard slope curve fitting.
as §1, with “μL.” for “mL.”, “preparation (4.0 μg) was” for “preparations (4 ng) were”, “min” for “minutes”, “The” for “Fluorescence in the”, “were then read” for “was quantified”

h-NAAA [3] = molecular target: T1, h-NAAA; experiment: UPLC/MS h-NAAA assay; assay type: biochemical
Protocol: NAAA protein preparation (10 μg) was pre-incubated with various concentrations of test compound or vehicle control in 100 mM NaH2PO4, 100 mM Tri Sodium Citrate Dehydrate, 0.1% Triton-X 100, 3 mM DTT, pH 4.5 for 30 min at 37° C. Duplicate samples were then incubated with 50 μM C17:1 10-cis-heptadecenoylethanolamide (Avanti Polar Lipids, Alabaster, Ala.—USA) at 37° C. for 30 minutes. The reaction was terminated by the addition of 0.2 mL of cold methanol containing 1 nmol of heptadecanoic acid (NuChek Prep, Elysian, Minn.—USA) as internal standard. Samples were then analyzed by UPLC/MS. Heptadecenoic and heptadecanoic acids were eluted on an Acquity UPLC BEH C18 column (50 mm length, 2.1 mm i.d., 1.7 μm pore size, Waters) isocratically at 0.5 mL/min for 1.5 min with a solvent mixture of 95% methanol and 5% water, both containing 0.25% Acetic Acid and 5 mM Ammonium Acetate. The column temperature was 40° C. Electrospray ionization was in the negative mode, capillary voltage was 2.7 kV, cone voltage was 45 V, extractor voltage was 3 V. The source temperature was 150° C. with a desolvation temperature of 400° C. N2 was used as drying gas at a cone flow of 100 L/hour and a desolvation flow of […]. The [M−H]-ion was monitored in the selected-ion monitoring mode (m/z values: heptadecenoic acid 267.37, heptadecanoic acid 269.37). Calibration curves were generated using commercial heptadecenoic acid (NuCheck Prep) Inhibition of NAAA activity was calculated as reduction of heptadecenoic acid in the samples compared to vehicle controls. IC50 values were calculated by non-linear regression analysis of log [concentration]/inhibition curves using GraphPad Prism 5 (GraphPad Software Inc., CA—USA) applying a standard slope curve fitting.

DNFB-induced scratching = DNFB-induced scratching in mice; assay type: in vivo, mouse; conditions: topical, single dose
Protocol: The methods included the following. Dermatitis was produced in mice using 2-4 dinitrofluorobenzene (DNFB) as described by Buckley and Nijkamp (1994), Am J Respir Grit Care Med 149:400-7. Mice were sensitized on two consecutive days with a 0.5% DNFB solution applied to the shaved abdomen. At day 8, the ears were challenged with a 0.2% DNFB solution. Ear thickness was determined by using a micrometer. Scratching was evaluated as number of episodes per 60 minutes period. Data were analysed by ANOVA followed by the Bonferroni's test. See also Hargreaves K, et al (1988), Pain 32: 77-88 for related information.
The methods include the following. Itching in mice was induced with DNFB as previously described. Additional studies were done with 48/80 model (an inducer of mast cell degranulation). 48/80 was given subcutaneously (30 mg per kg). Data were analysed by ANOVA followed by Bonferroni's test for multiple comparisons.

[4] = test system: 48/80-induced scratching (mast cell degranulation); experiment: Compound 48/80-induced scratching in mice; assay type: in vivo, mouse; conditions: topical, single dose, 48/80 30 mg per kg s.c.
Protocol: The methods include the following. Itching in mice was induced with DNFB as previously described. Additional studies were done with 48/80 model (an inducer of mast cell degranulation). 48/80 was given subcutaneously (30 mg per kg).

Chain of r-NAAA (Q5KTC7 34-362): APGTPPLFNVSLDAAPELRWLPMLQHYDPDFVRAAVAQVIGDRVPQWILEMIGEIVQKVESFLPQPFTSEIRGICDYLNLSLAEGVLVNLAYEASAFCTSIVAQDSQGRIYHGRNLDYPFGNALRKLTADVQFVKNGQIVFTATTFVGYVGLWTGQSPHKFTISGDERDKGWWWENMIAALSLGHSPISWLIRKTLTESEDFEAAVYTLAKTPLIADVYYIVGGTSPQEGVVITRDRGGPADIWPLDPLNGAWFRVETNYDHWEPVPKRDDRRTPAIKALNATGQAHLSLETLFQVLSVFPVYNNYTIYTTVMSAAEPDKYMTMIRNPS
T1 sequence (Q02083 29-359): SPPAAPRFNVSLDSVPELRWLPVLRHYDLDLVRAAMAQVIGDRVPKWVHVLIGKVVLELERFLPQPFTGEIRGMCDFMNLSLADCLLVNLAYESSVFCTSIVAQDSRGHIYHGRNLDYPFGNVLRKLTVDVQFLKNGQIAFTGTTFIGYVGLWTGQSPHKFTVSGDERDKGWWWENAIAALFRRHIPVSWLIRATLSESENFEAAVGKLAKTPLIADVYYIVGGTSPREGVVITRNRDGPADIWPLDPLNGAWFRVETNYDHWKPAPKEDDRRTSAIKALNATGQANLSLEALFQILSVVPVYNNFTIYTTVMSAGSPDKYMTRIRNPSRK

| SMILES | inhibition at 3 µM (r-NAAA) | IC50 (h-NAAA [2]) | DNFB-induced scratching (DNFB-induced scratching) | 48/80-induced scratching [4] | further results |
| --- | --- | --- | --- | --- | --- |
| O=C(N[C@H]1COC1=O)OCCCCCc1ccccc1 |  |  |  |  | half-life at 10 μM [1]: 23 min |
| CC[C@H]1OC(=O)[C@@H]1NC(=O)OCCCCCc1ccccc1 (relative stereo) [Example 47, 5-Phenylpentyl-N-[(2R*,3R*)-2-ethyl-4-oxo-oxetan-3-yl]-carbamate] | 92% | 4 nM |  |  |  |
| CC[C@@H]1OC(=O)[C@@H]1NC(=O)OCCCCCc1ccccc1 (relative stereo) [Example 49, 5-Phenylpentyl-N-[(2S*,3R*)-2-ethyl-4-oxo-oxetan-3-yl]-carbamate] | 89% | 9 nM |  |  |  |
| CC(C)[C@H]1OC(=O)[C@@H]1NC(=O)OC(C)(C)CCCCc1ccccc1 (relative stereo) [Example 55, (1,1-Dimethyl-5-phenyl-pentyl)-N-[(2R*,3R*)-2-isopropyl-4-oxo-oxetan-3-yl]-carbamate] | 98% | 12 nM |  |  |  |
| CC(C)(C)[C@H]1OC(=O)[C@@H]1NC(=O)OCCCCCc1ccccc1 (relative stereo) [Example 56, 5-Phenylpentyl-N-[(2R*,3R*)-2-tert-butyl-4-oxo-oxetan-3-yl]-carbamate] | 75% | 267 nM |  |  |  |
| CC(C)(C)[C@@H]1OC(=O)[C@@H]1NC(=O)OCCCCCc1ccccc1 (relative stereo) [Example 58, 5-Phenylpentyl-N-[(2S*,3R*)-2-tert-butyl-4-oxo-oxetan-3-yl]-carbamate] | 67% | 278 nM |  |  |  |
| C[C@@H]1OC(=O)[C@@H]1NC(=O)OCCCCC1CCCCC1 [Example 19, 4-cyclohexylbutyl-N-[(2S,3R)-2-methyl-4-oxo-oxetan-3-yl]-carbamate] |  | 8 nM |  |  | IC50 (r-NAAA): 20 nM; IC50 (h-NAAA [3]): 9 nM |
| C[C@H]1C[C@H]2[C@@H]3CCC4=CC(=O)C=C[C@]4(C)[C@@]3(F)[C@@H](O)C[C@]2(C)[C@@]1(O)C(=O)CCl [clobetasol, reference compound] |  |  | increased scratching | without effect |  |
| C[C@@H]1C[C@H]2[C@@H]3CCC4=CC(=O)C=C[C@]4(C)[C@@]3(F)[C@@H](O)C[C@]2(C)[C@@]1(O)C(=O)CO [dexamethasone, reference compound] |  |  | increased scratching | without effect |  |
| CC(CN1c2ccccc2Sc2ccccc21)N(C)C (centres unmarked) [promethazine, reference compound] |  |  | without effect | effective |  |
